From publication PMC9060145 (Skin Health and Disease, 2021)

Tests used:
LXRβ = molecular target: T1, LXRβ (Homo sapiens, UniProt P55055); assay: Nuclear receptor profiling, luciferase reporter in recombinant HeLa cells; type: cell-based
T1 construct: expressed in transfected cells; host or cells: recombinant HeLa cell lines
T1 sequence (P55055 1-460): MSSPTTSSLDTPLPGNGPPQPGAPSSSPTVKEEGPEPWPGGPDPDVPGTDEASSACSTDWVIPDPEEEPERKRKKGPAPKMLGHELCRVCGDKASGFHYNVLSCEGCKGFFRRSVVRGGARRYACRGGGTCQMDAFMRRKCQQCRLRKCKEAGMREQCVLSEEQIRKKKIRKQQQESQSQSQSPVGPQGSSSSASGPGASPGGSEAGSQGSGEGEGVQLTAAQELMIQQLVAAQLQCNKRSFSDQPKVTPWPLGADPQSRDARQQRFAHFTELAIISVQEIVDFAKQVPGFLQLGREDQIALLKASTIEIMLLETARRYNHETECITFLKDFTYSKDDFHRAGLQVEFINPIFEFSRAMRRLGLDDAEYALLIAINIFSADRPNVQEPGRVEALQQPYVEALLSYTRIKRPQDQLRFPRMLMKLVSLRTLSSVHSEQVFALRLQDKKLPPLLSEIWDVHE
Method: (§1) Nuclear receptor profiling, excluding retinoid X receptor (RXR), was previously described in detail.[24] Briefly, profiling was done using the Steady‐Glo luciferase assay kit (Promega, E2550) in recombinant HeLa cell lines expressing the respective receptors. Compounds were treated at nine doses (n = 2/dose) from 0.00015–10 µM. Data were normalized to minimum and maximum controls and 4‐parameter logistic regression fitting (Figure S2) was performed in XLfit software (IDBS).

MR = molecular target: T2, MR (Homo sapiens, UniProt P08235); assay: as above; type: cell-based; conditions: IA = Inactive
T2 construct: expressed in transfected cells; host or cells: recombinant HeLa cell lines
T2 sequence (P08235 1-984): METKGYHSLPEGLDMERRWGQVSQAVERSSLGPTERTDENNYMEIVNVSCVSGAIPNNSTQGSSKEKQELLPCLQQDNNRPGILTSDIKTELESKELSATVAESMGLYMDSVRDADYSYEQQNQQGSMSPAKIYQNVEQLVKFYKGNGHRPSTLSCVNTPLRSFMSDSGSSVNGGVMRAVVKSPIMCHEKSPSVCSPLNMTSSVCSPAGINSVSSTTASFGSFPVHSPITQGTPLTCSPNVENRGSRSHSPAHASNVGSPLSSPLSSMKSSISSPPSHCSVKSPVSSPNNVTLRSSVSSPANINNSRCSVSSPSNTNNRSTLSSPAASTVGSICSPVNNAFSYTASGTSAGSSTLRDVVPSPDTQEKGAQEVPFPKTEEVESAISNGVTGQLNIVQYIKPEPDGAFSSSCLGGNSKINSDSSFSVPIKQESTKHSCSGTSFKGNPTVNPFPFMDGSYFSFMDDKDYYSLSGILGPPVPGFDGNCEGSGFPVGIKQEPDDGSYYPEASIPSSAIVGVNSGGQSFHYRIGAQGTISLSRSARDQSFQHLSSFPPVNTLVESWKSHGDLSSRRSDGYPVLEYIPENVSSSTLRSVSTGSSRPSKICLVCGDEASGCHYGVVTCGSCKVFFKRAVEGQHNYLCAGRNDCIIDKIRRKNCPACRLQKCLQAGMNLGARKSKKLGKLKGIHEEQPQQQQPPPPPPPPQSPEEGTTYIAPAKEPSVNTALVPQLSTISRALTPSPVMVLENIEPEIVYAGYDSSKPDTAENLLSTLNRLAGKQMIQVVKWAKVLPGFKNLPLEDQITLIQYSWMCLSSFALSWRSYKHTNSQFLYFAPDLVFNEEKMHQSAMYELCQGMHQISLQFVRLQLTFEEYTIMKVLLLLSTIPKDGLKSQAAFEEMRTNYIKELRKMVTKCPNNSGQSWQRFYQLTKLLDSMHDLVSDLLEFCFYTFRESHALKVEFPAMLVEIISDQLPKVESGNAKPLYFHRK
Method: as §1

CYP2C19 = molecular target: T3, CYP2C19 (Homo sapiens, UniProt P33261); assay: CYP450 inhibition assay, human liver microsomes; type: biochemical; conditions: substrate omeprazole
T3 construct: from tissue; host or cells: human liver microsomes (per the earlier reading and the cited method)

CYP19 = molecular target: T4, CYP19 (Homo sapiens, UniProt P11511); assay: Qualitative CYP19 screening, CYP19 Supersomes, HPLC-MS/MS; type: biochemical
T4 construct: purchased Corning (Woburn, MA)
T4 sequence (P11511 1-503): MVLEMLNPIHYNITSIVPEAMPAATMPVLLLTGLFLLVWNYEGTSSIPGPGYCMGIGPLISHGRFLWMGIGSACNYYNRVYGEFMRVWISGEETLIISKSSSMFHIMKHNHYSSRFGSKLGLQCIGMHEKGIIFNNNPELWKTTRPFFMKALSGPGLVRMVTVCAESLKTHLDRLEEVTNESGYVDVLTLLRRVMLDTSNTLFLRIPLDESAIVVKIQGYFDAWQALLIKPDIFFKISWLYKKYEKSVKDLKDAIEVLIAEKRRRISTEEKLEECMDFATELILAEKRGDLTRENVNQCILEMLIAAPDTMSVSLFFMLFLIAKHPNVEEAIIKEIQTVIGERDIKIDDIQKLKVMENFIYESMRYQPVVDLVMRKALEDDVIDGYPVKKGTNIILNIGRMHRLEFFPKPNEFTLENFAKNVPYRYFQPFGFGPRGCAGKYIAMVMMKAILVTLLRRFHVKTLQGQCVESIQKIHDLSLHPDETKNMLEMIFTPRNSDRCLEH
Method: (§2) CYP450 inhibition assays (excluding CYP19 and 1 µM CYP2C8) were performed as previously described.[31] Substrate metabolite formation was measured by HPLC‐MS/MS. Percent of control activity was determined by comparing metabolite peak areas with and without test compound. Qualitative screening of CYP2C8 (1 µM) and CYP19 is described in detail in Supporting Information. Reference compound IC50 values were determined by non‐linear regression analysis using Hill equation curve fitting.
In vitro CYP19 screening was carried out in triplicate using a modified HPLC-MS/MS protocol based on methodology provided by Admescope Ltd. DMSO stock solutions of test compounds, positive control liarozole, androstenedione substrate and solvent control were diluted with 100 mM phosphate buffer (pH 7.4) such that DMSO content in final assay conditions was 1% in a volume of 200 µL. Briefly, to a microfuge tube was added 1 µM substrate, 1 mM NAPDH, and 0.1-1 µM test compounds (final concentrations after enzyme addition) in phosphate buffer before pre-incubating for 2 min at 37 °C. CYP19/CYP450 reductase Supersomes™ enzyme (50 µL, 1.5 pmol/mL) was added to each tube, gently mixed, then incubated at 37 °C for 30 min. The reaction was quenched with an equal volume of acetonitrile containing cortisone internal standard (100 nM). […]

CYP2B6 = molecular target: T5, CYP2B6 (Homo sapiens, UniProt P20813); assay: CYP450 inhibition assay, human liver microsomes; type: biochemical
T5 construct: from tissue; host or cells: human liver microsomes (per the earlier reading and the cited method)
T5 sequence (P20813 1-491): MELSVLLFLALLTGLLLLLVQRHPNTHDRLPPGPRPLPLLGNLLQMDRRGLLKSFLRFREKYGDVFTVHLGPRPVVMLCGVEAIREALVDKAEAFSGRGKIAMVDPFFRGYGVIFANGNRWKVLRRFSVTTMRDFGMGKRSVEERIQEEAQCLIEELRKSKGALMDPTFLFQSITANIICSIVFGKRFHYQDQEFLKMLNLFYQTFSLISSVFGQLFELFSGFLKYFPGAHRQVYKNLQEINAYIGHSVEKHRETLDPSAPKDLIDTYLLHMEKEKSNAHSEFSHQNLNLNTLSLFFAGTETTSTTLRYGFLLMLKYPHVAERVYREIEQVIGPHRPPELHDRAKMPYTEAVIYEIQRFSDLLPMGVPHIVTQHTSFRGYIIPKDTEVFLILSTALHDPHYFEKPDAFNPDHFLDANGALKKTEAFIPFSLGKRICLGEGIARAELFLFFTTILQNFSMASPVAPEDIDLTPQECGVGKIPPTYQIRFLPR
Method: as §2

RARα = molecular target: T6, RARα (Homo sapiens, UniProt P10276); assay: Nuclear receptor profiling, luciferase reporter in recombinant HeLa cells; type: cell-based
T6 construct: expressed in transfected cells; host or cells: recombinant HeLa cell lines
T6 sequence (P10276 1-462): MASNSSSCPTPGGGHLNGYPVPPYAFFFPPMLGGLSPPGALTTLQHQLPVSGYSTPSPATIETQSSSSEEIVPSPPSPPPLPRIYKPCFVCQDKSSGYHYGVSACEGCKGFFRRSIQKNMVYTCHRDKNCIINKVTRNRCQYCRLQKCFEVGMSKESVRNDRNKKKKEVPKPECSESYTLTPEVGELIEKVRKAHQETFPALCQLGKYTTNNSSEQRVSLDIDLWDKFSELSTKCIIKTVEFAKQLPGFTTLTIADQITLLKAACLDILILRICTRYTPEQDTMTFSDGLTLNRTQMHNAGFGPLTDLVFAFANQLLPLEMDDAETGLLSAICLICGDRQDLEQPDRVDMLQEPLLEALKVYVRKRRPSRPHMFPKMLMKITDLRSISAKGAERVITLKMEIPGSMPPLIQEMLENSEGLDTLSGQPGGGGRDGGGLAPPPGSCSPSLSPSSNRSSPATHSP
Method: as §1

RARβ = molecular target: T7, RARβ (Homo sapiens, UniProt P10826); assay: as above; type: cell-based
T7 construct: expressed in transfected cells; host or cells: recombinant HeLa cell lines
T7 sequence (P10826 1-455): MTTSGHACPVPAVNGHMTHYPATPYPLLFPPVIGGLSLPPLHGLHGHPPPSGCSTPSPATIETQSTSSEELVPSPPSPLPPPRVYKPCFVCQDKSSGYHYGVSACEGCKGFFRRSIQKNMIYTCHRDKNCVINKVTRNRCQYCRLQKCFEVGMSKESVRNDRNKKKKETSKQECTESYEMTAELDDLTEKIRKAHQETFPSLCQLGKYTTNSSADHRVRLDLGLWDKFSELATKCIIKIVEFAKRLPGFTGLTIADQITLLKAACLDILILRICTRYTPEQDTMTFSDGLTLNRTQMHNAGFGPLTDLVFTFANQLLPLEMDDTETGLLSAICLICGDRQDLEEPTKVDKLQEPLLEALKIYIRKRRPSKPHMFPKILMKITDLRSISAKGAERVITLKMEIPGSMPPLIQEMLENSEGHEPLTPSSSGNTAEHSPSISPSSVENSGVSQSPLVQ
Method: as §1

RARγ = molecular target: T8, RARγ (Homo sapiens, UniProt P13631); assay: as above; type: cell-based; conditions: IA = Inactive
T8 construct: expressed in transfected cells; host or cells: recombinant HeLa cell lines
T8 sequence (P13631 1-454): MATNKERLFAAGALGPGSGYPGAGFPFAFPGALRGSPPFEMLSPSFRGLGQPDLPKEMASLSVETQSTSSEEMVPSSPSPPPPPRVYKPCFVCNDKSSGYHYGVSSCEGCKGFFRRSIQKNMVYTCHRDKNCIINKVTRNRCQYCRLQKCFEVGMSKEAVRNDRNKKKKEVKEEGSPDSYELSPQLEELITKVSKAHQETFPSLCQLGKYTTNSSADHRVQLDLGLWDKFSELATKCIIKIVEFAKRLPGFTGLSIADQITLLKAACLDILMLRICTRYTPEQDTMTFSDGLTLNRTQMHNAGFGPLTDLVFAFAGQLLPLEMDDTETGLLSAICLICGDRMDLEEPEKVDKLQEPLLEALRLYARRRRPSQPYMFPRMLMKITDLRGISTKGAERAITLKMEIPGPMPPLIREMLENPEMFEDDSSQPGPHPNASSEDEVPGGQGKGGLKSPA
Method: as §1

T3 sequence (P33261 whole entry): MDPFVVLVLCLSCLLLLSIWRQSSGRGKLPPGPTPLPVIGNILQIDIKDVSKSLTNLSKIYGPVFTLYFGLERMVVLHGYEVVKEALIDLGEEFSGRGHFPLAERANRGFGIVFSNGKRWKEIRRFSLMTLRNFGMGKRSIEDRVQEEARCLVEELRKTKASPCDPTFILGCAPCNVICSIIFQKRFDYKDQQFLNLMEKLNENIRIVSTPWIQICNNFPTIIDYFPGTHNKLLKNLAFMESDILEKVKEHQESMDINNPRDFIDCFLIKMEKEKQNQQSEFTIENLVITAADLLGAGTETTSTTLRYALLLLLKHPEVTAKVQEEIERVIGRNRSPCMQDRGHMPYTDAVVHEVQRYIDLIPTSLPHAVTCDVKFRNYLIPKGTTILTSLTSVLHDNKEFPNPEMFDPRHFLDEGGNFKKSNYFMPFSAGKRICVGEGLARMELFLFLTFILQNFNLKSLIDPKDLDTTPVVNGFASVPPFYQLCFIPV

O=C(O)Cc1cccc(OCCCN(Cc2cccc(C(F)(F)F)c2Cl)CC(c2ccccc2)c2ccccc2)c1 [GW3965]
EC50 (LXRβ): 200 nM

C[C@]12C[C@H](O)[C@H]3[C@@H](CCC4=CC(=O)CC[C@@]43C)[C@@H]1CC[C@@H]2C(=O)CO [Corticosterone]
EC50 (MR): 0.4 nM

CCN(CC)CC#CCOC(=O)C(O)(c1ccccc1)C1CCCCC1 (stereo not shown) [oxybutynin]
nH (hill coefficient) (CYP2C19): 0.8

Clc1cccc(C(c2ccc3[nH]cnc3c2)n2ccnc2)c1 (stereo not shown) [Liarozole]
inhibition at 0.1 µM (CYP19; 0.1 µM compound, substrate androstenedione, calculated from decrease in metabolite formation, read-out: % Inhibition (reduction of CYP19 activity)): 61.1% | inhibition at 1 µM (CYP19; reference concentration 1000 nM, androstenedione 1000 nM, 30 min, 37°C): 83.8%

COC(=O)[C@H](c1ccccc1Cl)N1CCc2sccc2C1 [clopidogrel]
IC50 (CYP2B6): 370 nM | nH (hill coefficient) (CYP2B6; substrate bupropion): 1.3

CC1(C)CCSc2ccc(C#Cc3ccc(C(=O)O)cn3)cc21 [Tazarotenic acid]
EC50 (RARα): 32 nM | EC50 (RARβ): 3.2 nM | EC50 (RARγ): 25 nM
